Source: US12655171B2, “Compounds for activating invariant natural killer T-cells and methods of use in eliminating inflammatory senescent cells” (Deciduous Therapeutics, Inc., priority 2021, dated 2026)
Entries after “also recorded” stand apart in the source; their conditions may differ.

Assays:
DN3.2 = assay: IL-2 Secretion (A20 + DN3.2); type: cell-based, mouse
human iTCR [1] = assay: In vitro activation of human iTCR through Jurkat reporter cell line (JiNKT, GFP under NFkB promoter) with drug-loaded BWSTIM cells; type: cell-based; settings: 1 μg/mL; for GFP expression compared to the negative control: BWSTIM + JiNKT, 24 hours, FIG. 6A; for % GFP hiNKT binding (BWSTIM + JiNKT) 1 μg/mL, away from negative control: difference from negative control
Experimental: In order to determine the human iTCR activation potential induced by the compounds described herein, a jurkat cell line (JiNKT) was transfected with the human iTCR, and GFP under the NFkB promoter (cell line licensed from the Medical University of Vienna). A BWS147 cell line (BWSTIM) was also transfected with CD80 and CD1d to act as the antigen-presenting cell.
(§1) DCD molecules or α-GalCer were both dissolved in DMSO at a 5 mg/mL stock solution. BWSTIM cells were loaded with DCD molecules or α-GalCer at varying concentrations for 4 hours at 37° C. at a concentration of 20 k cells/well in 200 μL of media in a u-bottom 96 well dish. BWSTIM cells were washed 2× with media, then incubated with JiNKT cells at a concentration of 80 k cells/well in a u-bottom 96 well dish. Cells were co-cultured for 18 to 24 hours. The percentage of cells expressing high levels of GFP was measured through flow cytometry (after gating out the mCD45+ BWSTIM cells).
(§2) A jurkat cell line (JiNKT) was transfected with the human iTCR, and GFP under the NFkB promoter. A BWS147 cell line (BWSTIM) was also transfected with CD80 and CD1d to act as the antigen-presenting cell. A mouse iNKT hybridoma cell line (DN3.2) was also used as the iNKT. […]
as §1, with “GVK” for “DCD”, “compounds” for “DCD molecules or α-GalCer at varying concentrations”, “for” for “for 18 to”, “cytometry. 1 μg/mL of molecule GVK1a, GVK1b, GVK1c, or GVK1f was incubated with BWSTIM+JiNKT, and compared to α-GalCer.” for “cytometry (after gating out the mCD45+ BWSTIM cells).”

primary human iNKT cells = assay: Cytokine secretion of primary human iNKT cells co-cultured with drug-loaded BWSTIM cells; type: cell-based; settings: for secretion of IFNγ / secretion of IL-4 / secretion of IL-6 / secretion of TNFα: GVK compounds vs absence of drug loading, α-GalCer vs GVK compounds, media collected 2 days later, FIG. 6C; for Primary iNKT cytokine release: IL-4, IL-6, IFNγ or TNFα
Experimental: In order to determine the activation profile induced by the compounds described herein, primary human iNKT cells were co-cultured with drug-loaded BWSTIM cells.
Day 0: PBMCs were isolated from human blood using the STEMCELL TECHNOLOGIES™ SepMate™ PBMC isolation system. iNKT cells were then selected using the Miltenyi NKT magnetic cell separation kit.
Day 2: DCD molecules or α-GalCer were both dissolved in DMSO at a 5 mg/mL stock solution. BWSTIM cells were fixed with mitomycin C, then loaded with 10 μg/mL of DCD molecules or α-GalCer for 4 hours at 37° C. at a concentration of 20 k cells/well in 200 μL of media in a u-bottom 96 well dish. Cells were co-cultured with 80 k 6B11+ selected primary human iNKT cells.
D4: Media was collected. Cytokines were measured using the Satorious 4Plex kit on the iQue3 cytometer.
GVK molecules or α-GalCer were both dissolved in DMSO at a 5 mg/mL stock solution. BWSTIM cells were loaded with compounds for 4 hours at 37° C. at a concentration of 20 k cells/well in 200 μL of media in a u-bottom 96 well dish. Cells were co-cultured with 100 k 6B11+ selected primary human iNKT cells. Media was collected 2 days later. Cytokines were measured using the Satorious 4Plex kit on the iQue3 cytometer.

iNKT cells [2] = assay: Diet induced obesity (HFD) mouse model: iNKT cell expansion in spleen or eWAT; type: in vivo, C57BL/6J mice; settings: HFD mice, I.P. 2 g, four days post-injection; for expansion of immune (iNKT) cells in HFD mouse eWAT: percent iNKT cells of live cells, FIG. 5B
Experimental: (§3) Senescence is a feature of pre-adipocytes in obese individuals. To study the efficacy of the molecules described herein in decreasing senescence in fat, a diet induced obesity high fat diet (HFD) mouse model was used. 22-week-old HFD mice were injected with α-GalCer as a control and compared with the compounds of the present disclosure. The blood and spleen (or adipose tissue) were collected to measure iNKT activation and expansion, respectively. Cells in the eWAT (adipose tissue) were also collected and measured for % senescent cells. HFD mice were compared to non-HFD (normal diet) mice.
(§4) 22-week-old C57BL/6J mice on a chow or high-fat diet (HFD) were injected (I.P) with […] of α-GalCer, compound DCD-101 or compound DCD-154. Molecules were either dissolved in DMSO at a 5 mg/mL stock solution, or formulated into liposomes through thin-film rehydration, then extrusion through 200 nm filters. Liposome-based formulations were constructed using soy phosphatidylcholine, cholesterol, and DCD or α-GalCer in a 2:1:0.15 ratio. Two or twenty hours post-injection, blood was collected from the tail to measure the level of IFNγ using ELISA. Four days post-injection, mice were sacrificed to collect eWAT or spleen. Spleen was used to measure the number of iNKT cells, and eWAT was used to measure the number of iNKT cells and senescent cells using flow cytometry. iNKT cells were identified in the digested adipose tissue by gating live cells and mouse CD1d-α-GalCer tetramer+ cells. Senescent cells were measured withing the processes adipose tissue by selecting mCD45− cells, and C12FDG^HIGH cells.

IFNγ = assay: Diet induced obesity (HFD) mouse model: serum IFNγ (ELISA); type: in vivo, C57BL/6J mice; settings: for levels of IFNγ in the HFD model: twenty hours post injection, FIG. 5D
Experimental: as §3, §4

senescent cells = assay: Selective killing of senescent cells in vitro by activated human iNKT cells; type: cell-based
Experimental: Human iNKT cells were isolated and activated by incubation with α-GalCer. Activated iNKT cells were combined with samples containing healthy cells and senescent cells.

human iTCR [3] = assay: % GFP hiNKT binding (recombinant protein CD1d + JiNKT); type: cell-based
senescent cells in eWAT = assay: Diet induced obesity (HFD) mouse model: senescent cells (C12FDG+) in eWAT; type: in vivo, C57BL/6J mice; settings: HFD mice, four days post-injection; FIG. 5E
Experimental: as §3, §4

iNKT cells [4] = assay: In vivo iNKT cell expansion in spleen of C57BL/6J mice (flow cytometry); settings: 2 μg I.P.; four days post-injection; FIG. 4B
Experimental: (§5) In order to determine the expansion induced by the molecules described herein, molecules were injected into C57BL/6J mice. Serum IFNγ levels and the expansion of iNKT cells within splenocytes was measured 4 days post-IP injection.
(§6) Eight weeks old C57BL/6J mice were injected (I.P.) with 2 μg of α-GalCer or DCD molecules. Molecules were either dissolved in DMSO at a 5 mg/mL stock solution, or formulated into liposomes through thin-film rehydration, then extrusion through 200 nm filters. Liposome-based formulations were constructed using soy phosphatidylcholine, cholesterol, and DCD or α-GalCer in a 2:1:0.15 ratio. Twenty hours post-injection, blood was collected from the tail to measure the level of serum IFNγ using an ELISA kit from Biolegend. Four days post-injection, the mice were sacrificed and the spleenocytes were isolated. The percentage of iNKT cells within the spleens was measured using flow cytometry, selecting for live cells and mouse CD1d-α-GalCer tetramer+ cells.

serum IFNγ = assay: In vivo serum IFNγ (ELISA) in C57BL/6J mice; settings: 2 μg I.P.; twenty hours post-injection; FIG. 4A
Experimental: as §5, §6

mouse iTCR = assay: In vitro activation of mouse iTCR, DN3.2 iNKT hybridoma with drug-loaded BWSTIM cells, IL-2 secretion; type: cell-based; settings: 48 hours co-culture; FIG. 6B
Experimental: In order to determine the mouse iTCR activation potential induced by the compounds described herein, a mouse iNKT hybridoma cell line (DN3.2) from the La Jolla Institute for Allergy and Immunology were used as the iNKT. The BWS147 cell line (BWSTIM) with CD80 and CD1d acted as the antigen-presenting cell.
DCD molecules or α-GalCer were both dissolved in DMSO at a 5 mg/mL stock solution. BWSTIM cells were loaded with DCD molecules or α-GalCer of varying concentrations for 4 hours at 37° C. at a concentration of 20 k cells/well in 200 μL of media in a u-bottom 96 well dish. BWSTIM cells were washed 2× with media, then incubated with DN3.2 cells at a concentration of 80 k cells/well in a u-bottom 96 well dish. Cells were co-cultured for 48 hours. Media was collected and IL-2 was measured using the CisBio HTRF ELISA detection kit.
as §2
GVK molecules or α-GalCer were both dissolved in DMSO at a 5 mg/mL stock solution. BWSTIM cells were loaded with compounds for 4 hours at 37° C. at a concentration of 20 k cells/well in 200 μL of media in a u-bottom 96 well dish. BWSTIM cells were washed 2× with media, then incubated with DN3.2 cells at a concentration of 80 k cells/well in a u-bottom 96 well dish. Cells were co-cultured for 48 hours. Media was collected and IL-2 was measured using the CisBio HTRF ELISA detection kit.

Row | SMILES | IL-2 Secretion (A20 + DN3.2) (DN3.2) | GFP expression compared to the negative control (human iTCR [1]) | % GFP hiNKT binding (BWSTIM + JiNKT) 1 μg/mL, away from negative control (human iTCR [1]) | secretion of IFNγ (primary human iNKT cells) | secretion of IL-4 (primary human iNKT cells) | secretion of IL-6 (primary human iNKT cells) | secretion of TNFα (primary human iNKT cells) | Primary iNKT cytokine release (primary human iNKT cells) | expansion of immune (iNKT) cells in HFD mouse eWAT (iNKT cells [2]) | levels of IFNγ in the HFD model (IFNγ) | accumulation of senescent cells (C12FDG+) in eWAT (senescent cells in eWAT) | other results
1 | CCCCCCCCCCCCCCCCCCCCCCCCCC(=O)N[C@@H](CCC1OC(CO)C(O)C(O)C1O)[C@@H](O)[C@H](O)CCCCCCCCCCCCCC (stereo partly shown) [GVK1a] | Activated | did not induce GFP expression higher than the negative control | % <5 away from | did not increase secretion | did not increase secretion | did not increase secretion | did not increase secretion | No activation |  |  |  | 
2 | CCCCCCCCCCCCCCCCCCCCCCCCCC(=O)N[C@@H](CO[C@H]1O[C@H](CO)[C@H](O)[C@H](O)[C@H]1O)[C@H](O)[C@H](O)CCCCCCCCCCCCCC [α-GalCer, Alpha-galactosylceramide, reference compound] |  | induction remained high |  | significantly greater increase in the secretion | significantly greater increase in the secretion | significantly greater increase in the secretion | significantly greater increase in the secretion |  | caused expansion of immune cells in HFD mouse eWAT | significantly increased levels of IFNγ | effective in decreasing the accumulation of senescent cells in eWAT | expansion of immune (iNKT) cells in HFD mouse spleen (iNKT cells [2]; FIG. 5A): caused expansion of immune cells in HFD mouse spleen; levels of serum IFNγ in the HFD model (IFNγ; two hours post injection, FIG. 5C): significantly increased levels of IFNγ; killing of senescent vs non-senescent cells by iNKT cells activated by the compound (senescent cells; evaluated after 8 hours and 18 hours, FIG. 7B): senescent cells were selectively killed whereas non-senescent cells were maintained; presence of senescent vs non-senescent cells on incubation with iNKT cells activated by the compound (senescent cells; over a period of 18 hours, FIG. 7A): reduction in the presence of senescent cells over time whereas non-senescent cells were maintained; % GFP hiNKT binding (BWSTIM + JiNKT) 1 μg/mL (human iTCR [1]; % GFP): % 40-70; % GFP hiNKT binding (recombinant protein CD1d + JiNKT) (human iTCR [3]): % 30
3 | CCCCCCCCCCCCCC[C@@H](O)[C@@H](O)[C@H](COC1OC(CO)C(O)C(O)C1O)NC(=O)CCCCCCCCCCC12CC(CCCCCCCCCCCCC)(C1)C2 (stereo partly shown) [DCD-154] |  |  |  |  |  |  |  |  | caused expansion of immune cells in HFD mouse eWAT; also recorded: expand iNKT cells | significantly increased levels of IFNγ | effective in decreasing the accumulation of senescent cells in eWAT; also recorded: Senescent cell reduction in adipose tissue is observed | secretion of IFNγ in the HFD mouse model (IFNγ; between two and twenty hours post-treatment): induce secretion of IFNγ; average iNKT cell isolated from the spleen compared to α-GalCer (iNKT cells [4]): higher than mice treated with α-GalCer; average serum IFNγ compared to α-GalCer (serum IFNγ): higher than the average serum IFNγ of C57BL/6J mice treated with α-GalCer
4 | CCCCCCCCCCCCCCCCCCCCCCCCCC(=O)N[C@@H](CCC1OC(CO)C(O)C(O)C1O)[C@@H](O)[C@H](O)CCCCCCCCCCCCCC (stereo partly shown) [GVK1b] | Does not | did not induce GFP expression higher than the negative control | % <5 away from | did not increase secretion | did not increase secretion | did not increase secretion | did not increase secretion | No activation |  |  |  | expression of IL-2 in the DN3.2 cell line when loaded on BWSTIM CD1d (mouse iTCR): did not induce expression of IL-2
